Series [1] in a line: Pharmacokinetics in male SD rats after intravenous and oral administration. In kind it is in vivo. Here is the method:
Preparation of test compound solution: The test compound was formulated with 5% dimethylsulfoxide, 5% Solutol HS 15 and 90% physiological saline to give solution, which was used for oral and intravenous administration.
Male SD rats weighing 190-250 g were randomly divided into two groups, each group had three members; one group received test compound at a dose of 1.0 mg/kg by intravenous injection, the other group received test compound at a dose of 2.5 or 5.0 mg/kg by oral. After dosing, blood samples were collected at time points of 0.0833, 0.25, 0.5, 1.0, 2.0, 4.0, 7.0 and 24 h. Standard curve was plotted based on concentrations of the samples in a suitable range, the concentrations of test compounds in plasma samples were determined by using AB SCIEX API4000 LC-MS/MS in MRM mode. Pharmacokinetic parameters were calculated according to drug concentration-time curve using a noncompartmental method by WinNonLin 6.3 software.

For a further series, the target named is T1, hERG potassium channel (Homo sapiens, UniProt Q12809).
T1 construct: expressed in transfected cells; host or cells: HEK293
T1 sequence (Q12809 whole entry): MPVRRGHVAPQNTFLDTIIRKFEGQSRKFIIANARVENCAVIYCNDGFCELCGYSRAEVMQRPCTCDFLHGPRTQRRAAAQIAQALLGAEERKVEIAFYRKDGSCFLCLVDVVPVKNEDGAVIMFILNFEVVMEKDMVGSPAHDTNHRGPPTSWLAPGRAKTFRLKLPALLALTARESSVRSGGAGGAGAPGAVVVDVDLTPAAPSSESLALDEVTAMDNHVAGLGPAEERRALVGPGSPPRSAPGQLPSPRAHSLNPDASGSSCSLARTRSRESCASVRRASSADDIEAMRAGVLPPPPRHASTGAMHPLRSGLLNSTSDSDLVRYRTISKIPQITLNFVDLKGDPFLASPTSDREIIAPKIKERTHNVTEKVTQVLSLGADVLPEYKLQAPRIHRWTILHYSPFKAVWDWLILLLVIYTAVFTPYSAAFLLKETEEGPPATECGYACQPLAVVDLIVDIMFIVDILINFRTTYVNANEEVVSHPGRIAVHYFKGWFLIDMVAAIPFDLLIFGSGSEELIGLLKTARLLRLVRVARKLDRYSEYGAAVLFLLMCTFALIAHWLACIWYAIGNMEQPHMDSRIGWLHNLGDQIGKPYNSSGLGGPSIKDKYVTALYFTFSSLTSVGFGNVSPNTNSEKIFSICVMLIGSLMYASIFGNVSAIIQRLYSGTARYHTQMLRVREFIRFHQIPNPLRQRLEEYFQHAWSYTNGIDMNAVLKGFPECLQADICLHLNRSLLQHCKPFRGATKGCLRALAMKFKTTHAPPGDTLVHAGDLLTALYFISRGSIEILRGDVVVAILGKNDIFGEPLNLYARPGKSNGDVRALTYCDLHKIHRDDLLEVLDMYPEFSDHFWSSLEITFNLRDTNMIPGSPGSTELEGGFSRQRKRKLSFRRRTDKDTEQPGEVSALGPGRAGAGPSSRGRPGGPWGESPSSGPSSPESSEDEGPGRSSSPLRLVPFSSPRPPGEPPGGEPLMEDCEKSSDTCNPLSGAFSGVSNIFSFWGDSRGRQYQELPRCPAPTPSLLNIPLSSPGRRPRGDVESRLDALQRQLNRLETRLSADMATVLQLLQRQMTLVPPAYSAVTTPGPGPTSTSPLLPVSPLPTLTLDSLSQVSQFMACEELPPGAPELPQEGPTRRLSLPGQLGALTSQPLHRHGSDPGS
The series can be described thus: Inhibition of hERG potassium channel, manual patch clamp in HEK293 cells. The following applies: hERG tail current; HEK293 cells overexpressing hERG; whole cell patch clamp; 22-24° C. In kind it is cell-based. Here is the method: Each compound was weighed and dissolved in DMSO and diluted with DMSO to a serial solution (30, 10, 3.3, 1.1, 0.37 mM). The above serial solutions were diluted to 1000-fold with the extracellular fluid to prepare test solutions (final concentration was 30, 10, 3.3, 1.1, 0.37 μM respectively).
The HEK293 cells that overexpressed the hERG potassium channel were cultured in a 37° C., 5% CO2 incubator, and the culture medium contained DMEM, 15% fetal bovine serum, and 1% penicillin-streptomycin. When the cell density reached 80% of the culture plate, the cells were digested with trypsin/EDTA and transferred to a centrifuge tube, centrifuged at 1000 rpm for 3 minutes, then supernatant was discarded, and the cell culture medium was added. The cells were mixed uniformly by gently blowing and beating. […]
The whole cell recording mode was used to record the channel current in the experiment. Firstly, the extracellular fluid was perfused (approximately 2 mL per minute) and the data were continuous recorded, and the current was kept steady (the current decay was less than 5% in 5 minutes). […] The extracellular fluid containing the test compound was then perfused and the data were continuous recorded until the compound's inhibitory effect on the hERG current reached a steady state, at this time point the peak value of tail current was the current value after dosing. […]

In general, AUC(0-t) refers to exposure summed from dosing to a finite time, without extrapolation to infinity. Read a low AUC(0-t) as less exposure. As usually defined, the Cmax is the highest concentration seen after dosing. A word on the Tmax: it is the time at which the peak concentration occurs. One may read the half-life as the time in which the quantity being followed falls by half. Broadly, the IC50 is the point on the concentration scale where inhibition reaches its midpoint.

Turning to `COC(=O)Nc1c(N)nc(-c2nn(Cc3ccccc3F)c3cc(F)ccc23)nc1N` [Example 5, methyl (4,6-diamino-2-(6-fluoro-1-(2-fluorobenzyl)-1H-indazol-3-yl)pyrimidin-5-yl)carbamate], the F in series [1] (po 5 mg/kg versus iv 1 mg/kg) is listed as 93.4%. In series [1] (rat, plasma, iv, 1 mg/kg), the AUC(0-t) is 10300 ng·h/mL, the highest level (Cmax) was 2820 ng/mL, the Tmax was determined as 0.083 h and the clearance amounted to 1.59 mL/min/kg. This compound also gave a half-life in series [1] (rat, plasma, iv, 1 mg/kg) of 4.49 h. Also, in series [1] (rat, plasma, iv, 1 mg/kg, read-out: Vss), the Vd stood at 0.483 L/kg. In series [1] (rat, plasma, po, 5 mg/kg), the AUC(0-t) turned out to be 39700 ng·h/mL, the Cmax was found to be 2690 ng/mL, the time to peak (Tmax) came out at 3.5 h and the half-life is 10.9 h. In addition, on hERG potassium channel, the IC50 is over 30 µM.

Source of the values: patent US11242335B2, “Fluorine-substituted indazole compounds and uses thereof” (SUNSHINE LAKE PHARMA CO., LTD., priority 2017, dated 2022).
